Among the data in patent US20240409585A1, “MACROCYCLIC IMMUNOMODULATORS” (priority 2021, published 2024) are IC50 values, retold here.

Bridge positions count the residues as written; N and C are the ends. Square brackets hold non-standard residues; d marks the D form. Peptide text beside a SMILES is read from it. * marks the point of attachment. ξ: configuration not given here. Phe(4-(3-Py)) = N[C@@H](Cc1ccc(-c2cccnc2)cc1)C(=O)O; Phe(4-COOH) = N[C@@H](Cc1ccc(C(=O)O)cc1)C(=O)O; Trp(7-Me) = Cc1cccc2c(C[C@H](N)C(=O)O)c[nH]c12; Asp(3,3-Me2) = CC(C)(C(=O)O)[C@H](N)C(=O)O; Bip = N[C@@H](Cc1ccc(-c2ccccc2)cc1)C(=O)O; Phe(3-Me) = Cc1cccc(C[C@H](N)C(=O)O)c1; Nva(4-oxo) = CC(=O)C[C@H](N)C(=O)O; Val(3-OH) = CC(C)(O)[C@H](N)C(=O)O; 3Pal = N[C@@H](Cc1cccnc1)C(=O)O; Cha = N[C@@H](CC1CCCCC1)C(=O)O; Cit = NC(=O)NCCC[C@H](N)C(=O)O; Ile(3ξ) = CCC(C)[C@H](N)C(=O)O; Thr(3ξ) = CC(O)[C@H](N)C(=O)O; hSer = N[C@@H](CCO)C(=O)O; Carboxymethyl = O=C(O)C*; NMeA = CN[C@@H](C)C(=O)O; Dab = NCC[C@H](N)C(=O)O; Dap = NC[C@H](N)C(=O)O

The target in this assay is T1, PE-labeled human PD-L1-Ig binding to Jurkat cell line over-expressing human PD-1 (Jurkat-PD-1) (Homo sapiens, UniProt Q15116).
T1 construct: expressed in transfected cells; host or cells: Jurkat
T1 sequence (Q15116 25-288): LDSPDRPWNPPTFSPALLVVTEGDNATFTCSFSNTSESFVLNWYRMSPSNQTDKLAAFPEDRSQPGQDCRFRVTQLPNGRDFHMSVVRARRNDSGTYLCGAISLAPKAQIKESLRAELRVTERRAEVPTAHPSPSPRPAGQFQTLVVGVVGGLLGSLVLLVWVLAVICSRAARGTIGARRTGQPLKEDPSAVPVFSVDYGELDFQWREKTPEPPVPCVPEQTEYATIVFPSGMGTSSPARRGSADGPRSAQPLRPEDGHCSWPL
Kind of assay: Jurkat-PD-1 Cell Binding High-Content Screening Assay (CBA): Method 1. The note with it: Jurkat-hPD-1 cells, PE-labeled PD-L1-Ig 20 nM final; read-out: Jurkat HPDL1 PD1 IC50 (uM) (Method 1).
Take `CC(C)C[C@@H]1NC(=O)[C@H](CCCNC(=N)N)NC(=O)[C@@H](CC(C)C)NC(=O)[C@H](C)N(C)C(=O)[C@H](CCCNC(=N)N)NC(=O)[C@H](Cc2ccc(-c3cccnc3)cc2)NC(=O)[C@H](C(C)C)NC(=O)[C@H](Cc2c[nH]c3ccccc23)NC(=O)[C@H](CC(=O)O)NC(=O)[C@H](Cc2ccc(O)cc2)NC(=O)[C@H](Cc2ccccc2)NC(=O)CSC[C@@H](C(=O)N[C@@H](C)C(N)=O)NC(=O)[C@H]([C@@H](C)O)NC(=O)[C@H](C(C)C)NC1=O` [Compound 1096] ({CH2CO}-FYDWV[Phe(4-(3-Py))]R[NMeA][dL]RLVTCA-NH2; thioether N-14): the IC50 is 0.29 µM.
The result for `CC(C)C[C@@H]1NC(=O)[C@H](CCN)NC(=O)[C@@H](CC(C)C)NC(=O)[C@H](C)N(C)C(=O)[C@H](CCCNC(N)=O)NC(=O)[C@H](Cc2ccc(-c3ccccc3)cc2)NC(=O)[C@H](C(C)C)NC(=O)[C@H](Cc2c[nH]c3ccccc23)NC(=O)[C@H](CC(=O)O)NC(=O)[C@H](Cc2cccnc2)NC(=O)[C@H](CC(N)=O)NC(=O)CSC[C@@H](C(=O)N[C@@H](C)C(N)=O)NC(=O)[C@H]([C@@H](C)O)NC(=O)[C@H](C(C)C)NC1=O` [Compound 1318] ({CH2CO}-N[3Pal]DWV[Bip][Cit][NMeA][dL][Dab]LVTCA-NH2; thioether N-14) reads 0.02 µM.
The result for `Cc1cccc(C[C@@H]2NC(=O)[C@H](CC(=O)O)NC(=O)[C@H](Cc3ccc(OCC(=O)O)cc3)NC(=O)[C@H](CCN)NC(=O)CSC[C@@H](C(=O)N[C@@H](CCN)C(N)=O)NC(=O)[C@H](CO)NC(=O)[C@H](C(C)(C)O)NC(=O)[C@H](CC3CCCCC3)NC(=O)[C@H](CCN)NC(=O)[C@@H](CC(C)C)NC(=O)[C@H](C)N(C)C(=O)[C@H](C(C)(C)C(=O)O)NC(=O)[C@H](Cc3ccc(-c4ccccc4)cc3)NC(=O)[C@H](Cc3ccc(OCC(=O)O)cc3)NC2=O)c1` [Compound 1846] ({CH2CO}-[Dab]Y(Carboxymethyl)D[Phe(3-Me)]Y(Carboxymethyl)[Bip][Asp(3,3-Me2)][NMeA][dL][Dab][Cha][Val(3-OH)]SC[Dab]-NH2; thioether N-14) reads 0.02 µM.
For the compound `CC(C)C[C@@H]1NC(=O)[C@H](Cc2c[nH]c3ccccc23)NC(=O)[C@H](CC(=O)O)NC(=O)[C@H](CCO)NC(=O)[C@H](Cc2ccccc2)NC(=O)CSC[C@@H](C(=O)N[C@@H](C)C(=O)N[C@@H](CCC(=O)O)C(N)=O)NC(=O)[C@H](CO)NC(=O)[C@H](C(C)C)NC(=O)[C@H](CC(C)C)NC(=O)[C@H](CC(N)=O)NC(=O)[C@@H](CC(C)C)NC(=O)[C@H](C)N(C)C(=O)[C@H](C(C)C)NC(=O)[C@H](Cc2ccc(-c3ccccc3)cc2)NC1=O` [Compound 2009] ({CH2CO}-F[hSer]DWL[Bip]V[NMeA][dL]NLVSCAE-NH2; thioether N-14), the IC50 was found to be 0.02 µM.
As to `CC(=O)C[C@@H]1NC(=O)[C@H](Cc2ccc(OCC(=O)O)cc2)NC(=O)[C@H](Cc2ccccc2)NC(=O)CSC[C@@H](C(=O)N[C@@H](C)C(=O)N[C@@H](CCCCN)C(N)=O)NC(=O)[C@H](CO)NC(=O)[C@H](C(C)C)NC(=O)[C@H](CC(C)C)NC(=O)[C@H](CC(N)=O)NC(=O)[C@@H](CC(C)C)NC(=O)[C@H](C)N(C)C(=O)[C@H](C(C)C)NC(=O)[C@H](Cc2ccc(-c3ccccc3)cc2)NC(=O)[C@H](CC(C)C)NC(=O)[C@H](Cc2c[nH]c3ccccc23)NC1=O` [Compound 2013] ({CH2CO}-FY(Carboxymethyl)[Nva(4-oxo)]WL[Bip]V[NMeA][dL]NLVSCAK-NH2; thioether N-14), the IC50 came to 0.01 µM.
Turning to `CC(C)C[C@@H]1NC(=O)[C@H](Cc2c[nH]c3ccccc23)NC(=O)[C@H](CC(=O)O)NC(=O)[C@H](Cc2ccc(O)cc2)NC(=O)[C@H](Cc2ccccc2)NC(=O)CSC[C@@H](C(=O)N[C@@H](C)C(N)=O)NC(=O)[C@H](CO)NC(=O)[C@H](C(C)C)NC(=O)[C@H](CC(C)C)NC(=O)[C@H](CC(N)=O)NC(=O)[C@@H](C)NC(=O)[C@H](C)N(C)C(=O)[C@H](CCCNC(=N)N)NC(=O)[C@H](Cc2ccc(-c3ccccc3)cc2)NC1=O` [Compound 1781] ({CH2CO}-FYDWL[Bip]R[NMeA][dA]NLVSCA-NH2; thioether N-14), the 50% inhibitory concentration (IC50) was determined as 0.08 µM.
As for `CC(C)C[C@@H]1NC(=O)[C@H](Cc2c[nH]c3ccccc23)NC(=O)[C@H](CC(=O)O)NC(=O)[C@H](Cc2ccc(OCC(=O)O)cc2)NC(=O)[C@H](Cc2ccccc2)NC(=O)CSC[C@@H](C(=O)N[C@@H](CC(N)=O)C(N)=O)NC(=O)[C@H](Cc2cnc[nH]2)NC(=O)[C@H](C(C)C)NC(=O)[C@H](CC(C)C)NC(=O)[C@H](CCN)NC(=O)[C@@H](CC(C)C)NC(=O)[C@H](C)N(C)C(=O)[C@H](C(C)C)NC(=O)[C@H](Cc2ccc(-c3ccccc3)cc2)NC1=O` [Compound 2098] ({CH2CO}-FY(Carboxymethyl)DWL[Bip]V[NMeA][dL][Dab]LVHCN-NH2; thioether N-14), the half-maximal inhibitory concentration (IC50) came out at 0.01 µM.
In the case of `CC(C)C[C@@H]1NC(=O)[C@H](Cc2c[nH]c3ccccc23)NC(=O)[C@H](CC(=O)O)NC(=O)[C@H](Cc2ccc(C(=O)O)cc2)NC(=O)[C@H](Cc2ccc(OCC(=O)O)cc2)NC(=O)CSC[C@@H](C(=O)NCC(N)=O)NC(=O)[C@H](CO)NC(=O)[C@H](C(C)C)NC(=O)[C@H](CC(C)C)NC(=O)[C@H](CC(N)=O)NC(=O)[C@@H](CC(C)C)NC(=O)[C@H](C)N(C)C(=O)[C@H](C(C)C)NC(=O)[C@H](Cc2ccc(-c3ccccc3)cc2)NC1=O` [Compound 1548] ({CH2CO}-Y(Carboxymethyl)[Phe(4-COOH)]DWL[Bip]V[NMeA][dL]NLVSCG-NH2; thioether N-14) it was 0.01 µM; in that of `CC(C)C[C@@H]1NC(=O)[C@H](CCN)NC(=O)[C@@H](CC(C)C)NC(=O)[C@H](C)N(C)C(=O)[C@H](C(C)C)NC(=O)[C@H](Cc2ccc(-c3ccccc3)cc2)NC(=O)[C@H](C(C)C)NC(=O)[C@H](Cc2c[nH]c3ccccc23)NC(=O)[C@H](CC(=O)O)NC(=O)[C@H](Cc2ccc(O)cc2)NC(=O)[C@H](CCC(N)=O)NC(=O)CSC[C@@H](C(=O)N[C@@H](C)C(N)=O)NC(=O)[C@H]([C@@H](C)O)NC(=O)[C@H](C(C)C)NC1=O` [Compound 1359] ({CH2CO}-QYDWV[Bip]V[NMeA][dL][Dab]LVTCA-NH2; thioether N-14), 0.05 µM.
`CC(=O)NCCCC[C@@H]1NC(=O)[C@H](C(C)C)NC(=O)[C@H](CC2CCCCC2)NC(=O)[C@H](CCN)NC(=O)[C@@H](CC(C)C)NC(=O)[C@H](C)N(C)C(=O)[C@H](CC(N)=O)NC(=O)[C@H](Cc2ccc(-c3ccccc3)cc2)NC(=O)[C@H](C(C)C)NC(=O)[C@H](Cc2cccc(C)c2)NC(=O)[C@H](CC(=O)O)NC(=O)[C@H](Cc2ccc(OCC(=O)O)cc2)NC(=O)[C@H](Cc2ccc(OCC(=O)O)cc2)NC(=O)CSC[C@@H](C(N)=O)NC1=O` [Compound 2263] ({CH2CO}-Y(Carboxymethyl)Y(Carboxymethyl)D[Phe(3-Me)]V[Bip]N[NMeA][dL][Dab][Cha]VK(Ac)C-NH2; thioether N-14): the IC50 was found to be 0.01 µM.
`CC(C)C[C@@H]1NC(=O)[C@H](Cc2c[nH]c3ccccc23)NC(=O)[C@H](CC(=O)O)NC(=O)[C@H](Cc2ccc(O)cc2)NC(=O)[C@H](Cc2ccccc2)NC(=O)CSC[C@@H](C(=O)N[C@@H](C)C(N)=O)NC(=O)[C@H]([C@@H](C)O)NC(=O)[C@H](C(C)C)NC(=O)[C@H](CC(C)C)NC(=O)[C@H](CC(N)=O)NC(=O)[C@@H](CC(C)C)NC(=O)[C@H](C)N(C)C(=O)[C@H](C(C)C)NC(=O)[C@H](Cc2ccc(-c3ccccc3)cc2)NC1=O` [Compound 1467] ({CH2CO}-FYDWL[Bip]V[NMeA][dL]NLVTCA-NH2; thioether N-14): the IC50 stood at 0.02 µM.
As for `CCC(C)[C@@H]1NC(=O)[C@H](Cc2ccc(-c3ccccc3)cc2)NC(=O)[C@H](C(C)C)NC(=O)[C@H](Cc2c[nH]c3ccccc23)NC(=O)[C@H](CC(=O)O)NC(=O)[C@H](Cc2ccc(C(=O)O)cc2)NC(=O)[C@H](Cc2ccc(OCC(=O)O)cc2)NC(=O)CSC[C@@H](C(=O)NCC(=O)N[C@@H](CN)C(=O)O)NC(=O)[C@H](C(C)O)NC(=O)[C@H](C(C)C)NC(=O)[C@H](CC2CCCCC2)NC(=O)[C@H](CC(N)=O)NC(=O)[C@@H](CC(C)C)NC(=O)[C@H](C)N(C)C1=O` (stereo partly drawn) [Compound 2005] ({CH2CO}-Y(Carboxymethyl)[Phe(4-COOH)]DWV[Bip][Ile(3ξ)][NMeA][dL]N[Cha]V[Thr(3ξ)]CG[Dap]-OH; thioether N-14), the IC50 turned out to be 0.02 µM.
Consider `Cc1cccc2c(C[C@@H]3NC(=O)[C@H](CC(=O)O)NC(=O)[C@H](Cc4ccc(O)cc4)NC(=O)[C@H](Cc4ccccc4)NC(=O)CSC[C@@H](C(=O)N[C@@H](C)C(N)=O)NC(=O)[C@H]([C@@H](C)O)NC(=O)[C@H](C(C)C)NC(=O)[C@H](CC(C)C)NC(=O)[C@H](CCCNC(=N)N)NC(=O)[C@@H](CC(C)C)NC(=O)[C@H](C)N(C)C(=O)[C@H](CCCNC(=N)N)NC(=O)[C@H](Cc4ccc(-c5ccccc5)cc4)NC(=O)[C@H](C(C)C)NC3=O)c[nH]c12` [Compound 1097] ({CH2CO}-FYD[Trp(7-Me)]V[Bip]R[NMeA][dL]RLVTCA-NH2; thioether N-14), for which the IC50 came to 0.21 µM.
As for `Cc1cccc2c(C[C@@H]3NC(=O)[C@H](CC(=O)O)NC(=O)[C@H](Cc4ccc(O)cc4)NC(=O)[C@H](Cc4ccccc4)NC(=O)CSC[C@@H](C(=O)N[C@@H](C)C(N)=O)NC(=O)[C@H](CO)NC(=O)[C@H](C(C)C)NC(=O)[C@H](CC(C)C)NC(=O)[C@H](CC(N)=O)NC(=O)[C@@H](C)NC(=O)[C@H](C)N(C)C(=O)[C@H](C(C)C)NC(=O)[C@H](Cc4ccc(-c5ccccc5)cc4)NC(=O)[C@H](CC(C)C)NC3=O)c[nH]c12` [Compound 1796] ({CH2CO}-FYD[Trp(7-Me)]L[Bip]V[NMeA][dA]NLVSCA-NH2; thioether N-14), the half-inhibitory concentration (IC50) amounted to 0.16 µM.
As for `CCC(C)[C@@H]1NC(=O)[C@H](Cc2ccc(-c3ccccc3)cc2)NC(=O)[C@H](C(C)C)NC(=O)[C@H](Cc2cccc(C)c2)NC(=O)[C@H](CC(=O)O)NC(=O)[C@H](Cc2ccc(OCC(=O)O)cc2)NC(=O)[C@H](C(C)O)NC(=O)CSC[C@@H](C(N)=O)NC(=O)[C@H](C(C)O)NC(=O)[C@H](C(C)C)NC(=O)[C@H](CC2CCCCC2)NC(=O)[C@H](CCN)NC(=O)[C@@H](CC(C)C)NC(=O)[C@H](C)N(C)C1=O` (stereo partly drawn) [Compound 2250] ({CH2CO}-[Thr(3ξ)]Y(Carboxymethyl)D[Phe(3-Me)]V[Bip][Ile(3ξ)][NMeA][dL][Dab][Cha]V[Thr(3ξ)]C-NH2; thioether N-14), the 50% inhibitory concentration (IC50) was 0.02 µM.

As usually defined, the IC50 is the point on the concentration scale where inhibition reaches its midpoint.
